In the supplement of paper PMC11451515:

Tested on: SEM cells
Assay: cell viability relative to DMSO control; higher = less cytotoxic
Conditions: 48 h
In short: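 Viability was expressed as a per-plate percentage of DMSO wells, with cell-free wells as background. Leukemia cells (NOMO1 or SEM at 500 cells/well, P12-Ichikawa at 1000 cells/well) were adapted for at least four passages in each medium and seeded in 1536-well plates (5 μl). Library compounds in DMSO were pin-dosed over an 11-point threefold series from 47 μM to 0.79 nM, and CellTiter-Glo One luminescence was read after 48 h at 37°C.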

[1] = HPLM + 10% dialyzed FBS, 0.000781 µM
[2] = HPLM + 10% dialyzed FBS, 0.00234 µM
[3] = HPLM + 10% dialyzed FBS, 0.00702 µM
[4] = HPLM + 10% dialyzed FBS, 0.0211 µM
[5] = HPLM + 10% dialyzed FBS, 0.0632 µM
[6] = HPLM + 10% dialyzed FBS, 0.19 µM
[7] = HPLM + 10% dialyzed FBS, 0.569 µM
[8] = HPLM + 10% dialyzed FBS, 1.71 µM
[9] = HPLM + 10% dialyzed FBS, 5.12 µM
[10] = HPLM + 10% dialyzed FBS, 15.4 µM
[11] = HPLM + 10% dialyzed FBS, 46.1 µM
[12] = RPMI 5 mM glucose + 10% FBS, 0.000781 µM
[13] = RPMI 5 mM glucose + 10% FBS, 0.00234 µM
[14] = RPMI 5 mM glucose + 10% FBS, 0.00702 µM
[15] = RPMI 5 mM glucose + 10% FBS, 0.0211 µM
[16] = RPMI 5 mM glucose + 10% FBS, 0.0632 µM
[17] = RPMI 5 mM glucose + 10% FBS, 0.19 µM
[18] = RPMI 5 mM glucose + 10% FBS, 0.569 µM
[19] = RPMI 5 mM glucose + 10% FBS, 1.71 µM
[20] = RPMI 5 mM glucose + 10% FBS, 5.12 µM
[21] = RPMI 5 mM glucose + 10% FBS, 15.4 µM
[22] = RPMI 5 mM glucose + 10% FBS, 46.1 µM
[23] = RPMI 5 mM glucose + 10% dialyzed FBS, 0.000781 µM
[24] = RPMI 5 mM glucose + 10% dialyzed FBS, 0.00234 µM
[25] = RPMI 5 mM glucose + 10% dialyzed FBS, 0.00702 µM
[26] = RPMI 5 mM glucose + 10% dialyzed FBS, 0.0211 µM
[27] = RPMI 5 mM glucose + 10% dialyzed FBS, 0.0632 µM
[28] = RPMI 5 mM glucose + 10% dialyzed FBS, 0.19 µM
[29] = RPMI 5 mM glucose + 10% dialyzed FBS, 0.569 µM
[30] = RPMI 5 mM glucose + 10% dialyzed FBS, 1.71 µM
[31] = RPMI 5 mM glucose + 10% dialyzed FBS, 5.12 µM
[32] = RPMI 5 mM glucose + 10% dialyzed FBS, 15.4 µM
[33] = RPMI 5 mM glucose + 10% dialyzed FBS, 46.1 µM

| SMILES | cell viability [1] [%] | cell viability [2] [%] | cell viability [3] [%] | cell viability [4] [%] | cell viability [5] [%] | cell viability [6] [%] | cell viability [7] [%] | cell viability [8] [%] | cell viability [9] [%] | cell viability [10] [%] | cell viability [11] [%] | cell viability [12] [%] | cell viability [13] [%] | cell viability [14] [%] | cell viability [15] [%] | cell viability [16] [%] | cell viability [17] [%] | cell viability [18] [%] | cell viability [19] [%] | cell viability [20] [%] | cell viability [21] [%] | cell viability [22] [%] | cell viability [23] [%] | cell viability [24] [%] | cell viability [25] [%] | cell viability [26] [%] | cell viability [27] [%] | cell viability [28] [%] | cell viability [29] [%] | cell viability [30] [%] | cell viability [31] [%] | cell viability [32] [%] | cell viability [33] [%] |
| --- | --- | --- | --- | --- | --- | --- | --- | --- | --- | --- | --- | --- | --- | --- | --- | --- | --- | --- | --- | --- | --- | --- | --- | --- | --- | --- | --- | --- | --- | --- | --- | --- | --- |
| CCn1c(-c2nonc2N)nc2cncc(CNC3CCNCC3)c21 | 119 | 121 | 126 | 134 | 137 | 131 | 129 | 109 | 96.1 | 60.7 | 30.8 | 101 | 125 | 124 | 143 | 144 | 152 | 120 | 61.5 | 58.3 | 18.9 | 15.8 | 123 | 126 | 113 | 131 | 118 | 115 | 137 | 110 | 100 | 45.2 | 22.7 |
| O=C1Nc2cc(Br)ccc2/C1=C1/Nc2ccccc2/C1=N\O | 109 | 102 | 110 | 100 | 108 | 78.5 | 66.5 | 31.5 | 4.61 | 3.01 | 1.68 | 87.2 | 113 | 110 | 95.3 | 98.4 | 98.8 | 60 | 21.3 | 2.47 | 1.39 | 0.712 | 111 | 102 | 89.9 | 99.4 | 90.5 | 69.9 | 64.9 | 34.8 | 4.53 | 2.51 | 1.3 |
| C[C@@H]1CN[C@H]2[C@@H](C)[C@@]\3(CC[C@H]\4[C@@H]5C/C=C6/C[C@@H](O)CC[C@]6(C)[C@H]5CC4=C3C)O[C@@H]2C1 | 78.3 | 122 | 119 | 119 | 129 | 118 | 127 | 114 | 114 | 98.4 | 84.6 | 77.7 | 119 | 132 | 141 | 118 | 115 | 117 | 120 | 105 | 109 | 93.5 |  |  |  |  |  |  |  |  |  |  |  |
